The source of these data is patent EP4635488A1, “PHARMACEUTICAL COMPOSITION FOR PREVENTING OR TREATING BONE DISEASES” (Industry Foundation of Chonnam National University, priority 2022, dated 2024).

The subject of the first test is OVX-induced osteoporosis mouse model. Nature of the test: OVX-induced osteoporosis mouse model (micro-CT, body weight). Conditions: 20 mg/kg intraperitoneally once daily for 4 weeks after surgery; compared with the OVX group. Format: in vivo, C57BL/6 female mice. Here is the method:
Specific pathogen-free facilities were used to grow mice. To investigate the effects of 25-KR-03 in vivo, the inventors established an OVX-induced osteoporosis mouse model as previously described. Seven-week-old C57BL/6 female mice were divided into four groups (Sham, OVX, 25-KR-03, and PMSA-3-Ac). Among them, the OVX, 25-KR-03, and PMSA-3-Ac groups underwent OVX surgery.
After a 1-week recovery period, mice were intraperitoneally injected with 25-KR-03 or PMSA-3-Ac (20 mg/kg, dissolved in a mixture of 10 % Tween 80 and 10% DMSO) once daily for 4 weeks. The sham and control (OVX) groups received equal volumes of the mixture of 10 % Tween 80 and 10% DMSO once daily for 4 weeks. Body weights of the mice were measured weekly. When the mice were euthanized, the femurs were isolated and fixed in 4.0% paraformaldehyde for micro-computed tomography (micro-CT) analysis as previously performed.
Micro-CT scanning was performed as in previous studies. The Quantum GX Micro-CT imaging system (PerkinElmer, Hopkinton, MA, USA) was used at the Korea Basic Science Institute (Gwangju, Korea).
`CC(=O)c1cccc(N(CC(=O)Nc2ccccc2Sc2ccccc2)S(C)(=O)=O)c1` [PMSA-3-Ac, reference compound]: the “prevention of bone loss (Tb.Th and BMD values, micro-CT of femur)” value is “no significant effect”.

A further test has as its system RANKL-induced BMM. Nature of the test: In vitro osteoclast formation assay (TRAP staining / TRAP activity). Format: cell-based, C57/BL6 mice. Also noted: key to Inhibition rate (%): "Inactive" indicates that the % inhibition is less than 30%. Conditions: 1 µM; osteoclast differentiation in RANKL-induced BMM; mean ± SD from at least three experiments. Here is the method:
Bone marrow cells (BMC) were obtained from 8-week-old female C57/BL6 mice by washing femurs and tibias with α-MEM. BMCs were then cultured overnight in full α-MEM containing 10% FBS, 100 U/mL penicillin, and 100 µg/mL streptomycin. Non-attached cells were collected and cultured with M-CSF (30 ng/ mL) for 3 days, and then the attached cells were used as BMM. All animal experiments were approved by Chonnam National University IACUC (approval number: CNU IACUC-YB-2019-49).
To generate osteoclasts, BMMs were harvested and cultured in a complete medium containing 30 ng/mL M-CSF and 50 ng/mL RANKL with or without compounds for approximately 4 days to obtain mature osteoclasts. Differentiated osteoclasts were fixed with 4% formalin for 15 minutes, and then the cells were stained using a TRAP staining kit. The spread of osteoclast areas could be observed under the microscope. The viability of BMM (1 × 10^4 cells/well) was assessed in a 96-well plate using a cell viability assay kit as previously described.
As for `COc1ccccc1OC(=O)c1cccc(NCC(=O)Nc2ccccc2Sc2ccccc2)c1` [Compound 25-KR-20, 2-Methoxyphenyl 3-((2-oxo-2-((2-(phenylthio)phenyl)amino)ethyl)amino) benzoate], the “Inhibition rate (%)” value is recorded as 52.27±1.11%. Same read-out and setting: under `COc1ccc(OC(=O)c2cccc(NCC(=O)Nc3ccccc3Sc3ccccc3)c2)cc1` [Compound 25-KR-21, 4-Methoxyphenyl 3-((2-oxo-2-((2-(phenylthio)phenyl)amino)ethyl)amino) benzoate] stands 50.91 ± 1.93%.

For the compound `O=C(CNc1cccc(C(=O)Oc2ccc(Cl)cc2)c1)Nc1ccccc1Sc1ccccc1` [Compound 25-KR-25, 4-Chlorophenyl 3-((2-oxo-2-((2-(phenylthio)phenyl)amino)ethyl)amino) benzoate], the “Inhibition rate (%)” value turned out to be 43.18 ± 2.32%. Still for that read-out and setting: under `COC(=O)c1cccc(N(CC(=O)Nc2ccccc2Sc2ccccc2)S(=O)(=O)c2ccc(C)cc2)c1` [Compound 25-KR-26, Methyl 3-((4-methyl-N-(2-oxo-2-((2-(phenylthio)phenyl)amino)ethyl)phenyl)sulfonamido)benzoate] stands 49.09 ± 2.32%.

Still in this test, the particulars now being: 2 µM; osteoclast differentiation in RANKL-induced BMM; mean ± SD from at least three experiments.
In the case of `COC(=O)c1cccc(N(CC(=O)Nc2ccccc2Sc2ccccc2)S(C)(=O)=O)c1` [Compound 25-KR-01, Methyl 3-(N-(2-oxo-2-((2-(phenylthio)phenyl)amino)ethyl)methylsulfonamido) benzoate], the “Inhibition rate (%)” value is “Inactive ^c”. Take `CS(=O)(=O)N(CC(=O)Nc1ccccc1Sc1ccccc1)c1cccc(C(=O)O)c1` [Compound 25-KR-02, 3-(N-(2-oxo-2-((2-(phenylthio)phenyl)amino)ethyl)methylsulfonamido)benzoic acid]: the “Inhibition rate (%)” value is “Inactive ^c”. Regarding `CC(C)(C)c1ccc(OC(=O)c2cccc(N(CC(=O)Nc3ccccc3Sc3ccccc3)S(C)(=O)=O)c2)cc1` [Compound 25-KR-04, 4-(tert-butyl)phenyl 3-(N-(2-oxo-2-((2-(phenylthio)phenyl)amino)ethyl)methylsulfonamido)benzoate], the “Inhibition rate (%)” value is reported as “Inactive ^c”. Turning to `Cc1ccccc1OC(=O)c1cccc(N(CC(=O)Nc2ccccc2Sc2ccccc2)S(C)(=O)=O)c1` [Compound 25-KR-05, o -Tolyl 3-(N -(2-oxo-2-((2-(phenylthio)phenyl)amino)ethyl)methylsulfonamido) benzoate], the “Inhibition rate (%)” value is on record as “Inactive ^c”.

As to `Cc1cccc(OC(=O)c2cccc(N(CC(=O)Nc3ccccc3Sc3ccccc3)S(C)(=O)=O)c2)c1` [Compound 25-KR-06, m -Tolyl 3-(N-(2-oxo-2-((2-(phenylthio)phenyl)amino)ethyl)methylsulfonamido)benzoate], the “Inhibition rate (%)” value is “Inactive ^c”. In the case of `Cc1ccc(OC(=O)c2cccc(N(CC(=O)Nc3ccccc3Sc3ccccc3)S(C)(=O)=O)c2)cc1` [Compound 25-KR-07, p -Tolyl 3-(N-(2-oxo-2-((2-(phenylthio)phenyl)amino)ethyl)methylsulfonamido) benzoate], the “Inhibition rate (%)” value is “Inactive ^c”. Same read-out and setting: then `CS(=O)(=O)N(CC(=O)Nc1ccccc1Sc1ccccc1)c1cccc(C(=O)Oc2ccccc2C#N)c1` [Compound 25-KR-11, 2-Cyanophenyl 3-(N-(2-oxo-2-((2-(phenylthio)phenyl)amino)ethyl)methylsulfonamido)benzoate], with “Inactive ^c”. The same measure, in the same setting: then `CS(=O)(=O)N(CC(=O)Nc1ccccc1Sc1ccccc1)c1cccc(C(=O)Oc2cccc([N+](=O)[O-])c2)c1` [Compound 25-KR-12, 3-Nitrophenyl 3-(N-(2-oxo-2-((2-(phenylthio)phenyl)amino)ethyl)methylsulfonamido)benzoate], with “Inactive ^c”.

As for `CS(=O)(=O)N(CC(=O)Nc1ccccc1Sc1ccccc1)c1cccc(C(=O)Oc2ccc([N+](=O)[O-])cc2)c1` [Compound 25-KR-13, 4-Nitrophenyl 3-(N-(2-oxo-2-((2-(phenylthio)phenyl)amino)ethyl)methylsulfonamido)benzoate], the “Inhibition rate (%)” value was “Inactive ^c”.

`CS(=O)(=O)N(CC(=O)Nc1ccccc1Sc1ccccc1)c1cccc(C(=O)Oc2cccc3ccccc23)c1` [Compound 25-KR-14, Naphthalen-1-yl 3-(N-(2-oxo-2-((2-(phenylthio)phenyl)amino)ethyl)methylsulfonamido)benzoate]: the “Inhibition rate (%)” value is reported as “Inactive ^c”. For the compound `CS(=O)(=O)N(CC(=O)Nc1ccccc1Sc1ccccc1)c1cccc(C(=O)Oc2ccc3ccccc3c2)c1` [Compound 25-KR-15, Naphthalen-2-yl 3-(N-(2-oxo-2-((2-(phenylthio)phenyl)amino)ethyl)methylsulfonamido)benzoate], the “Inhibition rate (%)” value is “Inactive ^c”.

`CC(C)(C)[Si](C)(C)Oc1cccc(N(CC(=O)Nc2ccccc2Sc2ccccc2)S(C)(=O)=O)c1` [Compound 25-KR-16, 2-(N-(3-((tert-butyldimethylsilyl)oxy)phenyl)methylsulfonamido)-N-(2-(phenylthio)phenyl)acetamide]: the “Inhibition rate (%)” value is reported as “Inactive ^c”. Turning to `CS(=O)(=O)N(CC(=O)Nc1ccccc1Sc1ccccc1)c1cccc(O)c1` [Compound 25-KR-17, 2-(N-(3-hydroxyphenyl)methylsulfonamido)-N-(2-(phenylthio)phenyl)acetamide], the “Inhibition rate (%)” value is listed as “Inactive ^c”. On the same count and under the same terms, under `CC(C)(C)[Si](C)(C)Oc1cccc(NCC(=O)Nc2ccccc2Sc2ccccc2)c1` [Compound 25-KR-18, 2-((3-((tert-butyldimethylsilyl)oxy)phenyl)amino)-N-(2-(phenylthio)phenyl)acetamide] stands “Inactive ^c”.

Take `O=C(CNc1cccc(O)c1)Nc1ccccc1Sc1ccccc1` [Compound 25-KR-19, 2-((3-Hydroxyphenyl)amino)-N-(2-(phenylthio)phenyl)acetamide]: the “Inhibition rate (%)” value is “Inactive ^c”.

The test is the same for the next values; noted with them: Mus musculus; 1 µM; osteoclast differentiation in RANKL-induced BMM; mean ± SD from at least three experiments; read-out: Inhibition rate (%).
As a reminder, the inhibition is the share of the control response that was lost under treatment. Regarding `Cc1ccccc1OC(=O)c1cccc(NCC(=O)Nc2ccccc2Sc2ccccc2)c1` [Compound 25-KR-22, o-Tolyl 3-((2-oxo-2-((2-(phenylthio)phenyl)amino)ethyl)amino)benzoate], the inhibition at 1 µM is 47.7 ± 11.4%.

As to `Cc1cccc(OC(=O)c2cccc(NCC(=O)Nc3ccccc3Sc3ccccc3)c2)c1` [Compound 25-KR-23, m-Tolyl 3-((2-oxo-2-((2-(phenylthio)phenyl)amino)ethyl)amino)benzoate], the inhibition at 1 µM stood at 46.8 ± 13.4%. On the same count and under the same terms, under `Cc1ccc(OC(=O)c2cccc(NCC(=O)Nc3ccccc3Sc3ccccc3)c2)cc1` [Compound 25-KR-24, p-Tolyl 3-((2-oxo-2-((2-(phenylthio)phenyl)amino)ethyl)amino)benzoate] stands 36.8 ± 7.82%; under `O=C(CNc1cccc(C(=O)O)c1)Nc1ccccc1Sc1ccccc1` [Compound 25-KR-27, 3-((2-oxo-2-((2-(phenylthio)phenyl)amino)ethyl)amino)benzoic acid], 31.8 ± 1.93%.

Still in this test, the particulars now being: Mus musculus; 2 µM; osteoclast differentiation in RANKL-induced BMM; mean ± SD from at least three experiments; read-out: Inhibition rate (%).
Consider `NCCCC(O)(P(=O)(O)O)P(=O)(O)O` [Alendronate, reference compound], for which the inhibition at 2 µM stood at 41.2 ± 8.68%.

In the case of `COc1ccccc1OC(=O)c1cccc(N(CC(=O)Nc2ccccc2Sc2ccccc2)S(C)(=O)=O)c1` [Compound 25-KR-08, 2-Methoxyphenyl 3-(N-(2-oxo-2-((2-(phenylthio)phenyl)amino)ethyl)methylsulfonamido)benzoate], the inhibition at 2 µM was determined as 37.6 ± 8.21%.

With `COc1ccc(OC(=O)c2cccc(N(CC(=O)Nc3ccccc3Sc3ccccc3)S(C)(=O)=O)c2)cc1` [Compound 25-KR-09, 4-Methoxyphenyl 3-(N-(2-oxo-2-((2-(phenylthio)phenyl)amino)ethyl)methylsulfonamido)benzoate], the inhibition at 2 µM was 45.8 ± 3.65%. With `CS(=O)(=O)N(CC(=O)Nc1ccccc1Sc1ccccc1)c1cccc(C(=O)Oc2ccc(Cl)cc2)c1` [Compound 25-KR-10, 4-Chlorophenyl 3-(N-(2-oxo-2-((2-(phenylthio)phenyl)amino)ethyl)methylsulfonamido)benzoate], the inhibition at 2 µM was found to be 47.4 ± 9.79%.

The same test, now with this note: SAR summary in words of Table 2 (2 µM).
As to `COc1ccccc1OC(=O)c1cccc(N(CC(=O)Nc2ccccc2Sc2ccccc2)S(C)(=O)=O)c1` [Compound 25-KR-08, 2-Methoxyphenyl 3-(N-(2-oxo-2-((2-(phenylthio)phenyl)amino)ethyl)methylsulfonamido)benzoate], the “inhibitory effects on osteoclast formation” value (“inhibitory effects” for short) is on record as “moderate inhibitory effects”.

Regarding `COc1ccc(OC(=O)c2cccc(N(CC(=O)Nc3ccccc3Sc3ccccc3)S(C)(=O)=O)c2)cc1` [Compound 25-KR-09, 4-Methoxyphenyl 3-(N-(2-oxo-2-((2-(phenylthio)phenyl)amino)ethyl)methylsulfonamido)benzoate], the “inhibitory effects” value is listed as “moderate inhibitory effects”. Turning to `CS(=O)(=O)N(CC(=O)Nc1ccccc1Sc1ccccc1)c1cccc(C(=O)Oc2ccc(Cl)cc2)c1` [Compound 25-KR-10, 4-Chlorophenyl 3-(N-(2-oxo-2-((2-(phenylthio)phenyl)amino)ethyl)methylsulfonamido)benzoate], the “inhibitory effects” value is listed as “moderate inhibitory effects”.
